For 21 compounds, IC50 and melting point results are on record in patent US20130102595A1 (Curis, Inc., priority 2011, published 2013).

The test system of series [1] is HDACs (HeLa cell nuclear extracts). Description: HDAC enzymatic activity, Biomol Color de Lys system. It counts as biochemical. To be noted: 1 hour, 25° C. Summed up: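 HeLa nuclear extract incubated with serially diluted compound and […] artificial substrate in 50 mM Tris/Cl pH 8.0, 137 mM NaCl, 2.7 mM KCl, 1 mM MgCl2. Run 1 h at 25 °C, stopped with developer. Fluorescence read (ex 350-380, em 440-460 nm); IC50 from sigmoidal dose-response fit.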

A further series deals with T1, PI3Kα (p110α/p85α) (Homo sapiens, UniProt P42336).
T1 construct: GST (N); made in house; host or cells: Baculovirus-infected Sf9 cells
Description: PI3Kα ADP-Glo assay. It counts as biochemical. As to conditions: 20 μM PIP2, 10 μM ATP, 30 minutes. Summed up: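 Recombinant full-length human GST-p110α/His-p85α, co-expressed in Sf9 cells, was incubated 30 min at room temperature with 20 μM PIP2 and 10 μM ATP. The buffer was 50 mM HEPES pH 7.4, 150 mM NaCl, 5 mM MgCl2, 1 mM DTT, 3 µM orthovanadate and 0.5% DMSO. ADP formed was detected by ADP-Glo luminescence.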

T1 sequence (P42336 whole entry): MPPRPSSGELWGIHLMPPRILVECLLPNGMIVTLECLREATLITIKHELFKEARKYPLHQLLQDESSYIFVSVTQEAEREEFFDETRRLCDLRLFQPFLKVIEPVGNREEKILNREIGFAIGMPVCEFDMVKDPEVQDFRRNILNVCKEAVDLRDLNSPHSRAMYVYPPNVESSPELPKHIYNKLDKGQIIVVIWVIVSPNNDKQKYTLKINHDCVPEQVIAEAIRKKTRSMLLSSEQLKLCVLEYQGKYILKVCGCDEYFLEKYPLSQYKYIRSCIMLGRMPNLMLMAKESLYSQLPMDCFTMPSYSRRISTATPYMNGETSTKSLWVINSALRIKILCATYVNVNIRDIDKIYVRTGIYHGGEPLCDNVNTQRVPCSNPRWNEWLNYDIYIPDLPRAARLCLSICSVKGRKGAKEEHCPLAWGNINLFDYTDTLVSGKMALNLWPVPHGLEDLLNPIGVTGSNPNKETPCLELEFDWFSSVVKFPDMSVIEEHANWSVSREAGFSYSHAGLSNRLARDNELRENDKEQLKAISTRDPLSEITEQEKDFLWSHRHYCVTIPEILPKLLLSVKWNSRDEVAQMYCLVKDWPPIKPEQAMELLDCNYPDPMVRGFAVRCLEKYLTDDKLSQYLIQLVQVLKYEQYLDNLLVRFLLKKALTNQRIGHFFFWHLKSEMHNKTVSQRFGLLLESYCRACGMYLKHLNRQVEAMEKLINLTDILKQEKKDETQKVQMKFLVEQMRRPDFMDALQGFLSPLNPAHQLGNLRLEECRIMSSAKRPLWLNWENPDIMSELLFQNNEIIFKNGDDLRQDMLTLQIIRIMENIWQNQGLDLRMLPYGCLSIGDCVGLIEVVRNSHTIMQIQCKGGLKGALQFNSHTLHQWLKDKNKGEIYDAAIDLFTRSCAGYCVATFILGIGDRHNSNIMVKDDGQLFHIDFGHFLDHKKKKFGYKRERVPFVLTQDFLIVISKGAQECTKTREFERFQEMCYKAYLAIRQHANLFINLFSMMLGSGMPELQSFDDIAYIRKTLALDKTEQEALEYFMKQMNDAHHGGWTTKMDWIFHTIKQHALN
T1 sequence (P27986 whole entry partner): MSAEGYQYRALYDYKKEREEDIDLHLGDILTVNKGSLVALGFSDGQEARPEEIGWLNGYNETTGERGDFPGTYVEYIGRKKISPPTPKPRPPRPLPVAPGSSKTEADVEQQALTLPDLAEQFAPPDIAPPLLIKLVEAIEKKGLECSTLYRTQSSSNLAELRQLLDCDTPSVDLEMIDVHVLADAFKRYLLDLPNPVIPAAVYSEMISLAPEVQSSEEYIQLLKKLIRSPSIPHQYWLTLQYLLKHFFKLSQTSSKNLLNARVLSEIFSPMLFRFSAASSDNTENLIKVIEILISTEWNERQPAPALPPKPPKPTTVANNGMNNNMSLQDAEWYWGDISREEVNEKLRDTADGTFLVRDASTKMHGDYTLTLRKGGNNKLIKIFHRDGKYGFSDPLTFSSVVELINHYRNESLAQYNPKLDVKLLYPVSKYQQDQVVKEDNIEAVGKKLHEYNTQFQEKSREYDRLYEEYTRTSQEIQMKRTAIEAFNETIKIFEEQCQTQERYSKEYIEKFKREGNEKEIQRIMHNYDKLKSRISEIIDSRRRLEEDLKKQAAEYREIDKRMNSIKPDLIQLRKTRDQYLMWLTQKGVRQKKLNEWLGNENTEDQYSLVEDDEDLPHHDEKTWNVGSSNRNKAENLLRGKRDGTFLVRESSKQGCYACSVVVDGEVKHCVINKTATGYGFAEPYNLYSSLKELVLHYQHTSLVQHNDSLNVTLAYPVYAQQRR

For the compound `COc1ccc(-c2nc(N3CCOCC3)c3sc(CN(C)c4ncc(C(=O)NO)cn4)cc3n2)cc1` [Compound 131, N-hydroxy-2-(((2-(4-methoxyphenyl)-4-morpholinothieno[3,2-d]pyrimidin-6-yl)methyl)(methyl)amino)pyrimidine-5-carboxamide], the melting point is 247 °C (dec.). In addition, in series [1], the IC50 is < 100 nM. Besides, on PI3Kα (p110α/p85α), the IC50 is > 10000 nM.
The compound `CN(Cc1cc2nc(-c3ccc(O)cc3)nc(N3CCOCC3)c2s1)c1ncc(C(=O)NO)cn1` [Compound 133, N-hydroxy-2-(((2-(4-hydroxyphenyl)-4-morpholinothieno[3,2-d]pyrimidin-6-yl)methyl)(methyl)amino)pyrimidine-5-carboxamide] displayed a melting point of 185 to 195 °C. For the same compound, the IC50 in series [1] is < 100 nM. Besides, the IC50 against PI3Kα (p110α/p85α) lay within 100 to 1000 nM.
Consider `CN(Cc1cc2nc(-c3cccc(N)c3)nc(N3CCOCC3)c2s1)c1ncc(C(=O)NO)cn1` [Compound 134, 2-(((2-(3-aminophenyl)-4-morpholinothieno[3,2-d]pyrimidin-6-yl)methyl)(methyl)amino)-N-hydroxypyrimidine-5-carboxamide], for which the melting point was in the range of 179 to 182 °C. Also, the IC50 in series [1] was < 100 nM. For the same compound, the IC50 against PI3Kα (p110α/p85α) is 100 to 1000 nM.
`CN(Cc1cc2nc(-c3ccc(CN)cc3)nc(N3CCOCC3)c2s1)c1ncc(C(=O)NO)cn1` [Compound 135, 2-(((2-(4-(aminomethyl)phenyl)-4-morpholinothieno[3,2-d]pyrimidin-6-yl)methyl)(methyl)amino)-N-hydroxypyrimidine-5-carboxamide] yielded a melting point of 184 to 186 °C. Moreover, in series [1], the IC50 was < 100 nM. This compound displayed an IC50 at PI3Kα (p110α/p85α) of 100 to 1000 nM.
With `CN(Cc1cc2nc(-c3cccc(CN)c3)nc(N3CCOCC3)c2s1)c1ncc(C(=O)NO)cn1` [Compound 137, 2-(((2-(3-(aminomethyl)phenyl)-4-morpholinothieno[3,2-d]pyrimidin-6-yl)methyl)(methyl)amino)-N-hydroxypyrimidine-5-carboxamide], the melting point lay in the range of 173 to 176 °C. For the same compound, the IC50 in series [1] was < 100 nM. Besides, the IC50 against PI3Kα (p110α/p85α) was in the range of 1000 to 10000 nM.
Compound `COCc1cccc(-c2nc(N3CCOCC3)c3sc(CN(C)c4ncc(C(=O)NO)cn4)cc3n2)c1` [Compound 139, N-hydroxy-2-(((2-(3-(methoxymethyl)phenyl)-4-morpholinothieno[3,2-d]pyrimidin-6-yl)methyl)(methyl)amino)pyrimidine-5-carboxamide] returned a melting point of 178 to 181 °C. In addition, the IC50 in series [1] was < 100 nM. Besides, on PI3Kα (p110α/p85α), the IC50 lay in the range of 100 to 1000 nM.
As for `CN(Cc1cc2nc(-c3ccc(CO)cc3)nc(N3CCOCC3)c2s1)c1ncc(C(=O)NO)cn1` [Compound 140, N-hydroxy-2-(((2-(4-(hydroxymethyl)phenyl)-4-morpholinothieno[3,2-d]pyrimidin-6-yl)methyl)(methyl)amino)pyrimidine-5-carboxamide], the melting point fell in the range of 218 to 223 °C. Moreover, the IC50 in series [1] is < 100 nM. Further, the IC50 at PI3Kα (p110α/p85α) was 100 to 1000 nM.
For `CN(Cc1cc2nc(-c3ccccc3CO)nc(N3CCOCC3)c2s1)c1ncc(C(=O)NO)cn1` [Compound 141, N-hydroxy-2-(((2-(2-(hydroxymethyl)phenyl)-4-morpholinothieno[3,2-d]pyrimidin-6-yl)methyl)(methyl)amino)pyrimidine-5-carboxamide] the same measures were 173 to 176 °C, < 100 nM and 100 to 1000 nM.
The compound `CN(Cc1cc2nc(-c3ccc(C(N)=O)cc3)nc(N3CCOCC3)c2s1)c1ncc(C(=O)NO)cn1` [Compound 143, 2-(((2-(4-carbamoylphenyl)-4-morpholinothieno[3,2-d]pyrimidin-6-yl)methyl)(methyl)amino)-N-hydroxypyrimidine-5-carboxamide] registered a melting point of 200 to 202 °C. Further, in series [1], the IC50 is < 100 nM. Further, the IC50 against PI3Kα (p110α/p85α) was 100 to 1000 nM.
For `CNC(=O)c1cccc(-c2nc(N3CCOCC3)c3sc(CN(C)c4ncc(C(=O)NO)cn4)cc3n2)c1` [Compound 144, N-hydroxy-2-(methyl((2-(3-(methylcarbamoyl)phenyl)-4-morpholinothieno[3,2-d]pyrimidin-6-yl)methyl)amino)pyrimidine-5-carboxamide], the melting point fell in the range of 215 to 217 °C. Also, in series [1], the IC50 is < 100 nM. For the same compound, the IC50 at PI3Kα (p110α/p85α) fell in the range of 1000 to 10000 nM.
`CN(Cc1cc2nc(-c3ccc(C#N)cc3)nc(N3CCOCC3)c2s1)c1ncc(C(=O)NO)cn1` [Compound 146, 2-(((2-(4-cyanophenyl)-4-morpholinothieno[3,2-d]pyrimidin-6-yl)methyl)(methyl)amino)-N-hydroxypyrimidine-5-carboxamide]: the melting point is 214 to 216 °C. In addition, in series [1], the IC50 was < 100 nM. Also, the IC50 against PI3Kα (p110α/p85α) was > 10000 nM.
`CN(Cc1cc2nc(-c3ccc(Cl)cc3)nc(N3CCOCC3)c2s1)c1ncc(C(=O)NO)cn1` [Compound 147, 2-(((2-(4-chlorophenyl)-4-morpholinothieno[3,2-d]pyrimidin-6-yl)methyl)(methyl)amino)-N-hydroxypyrimidine-5-carboxamide] gave a melting point of 153 °C. Further, in series [1], the IC50 is < 100 nM. The IC50 at PI3Kα (p110α/p85α) is > 10000 nM.
In the case of `CC(C)c1ccc(-c2nc(N3CCOCC3)c3sc(CN(C)c4ncc(C(=O)NO)cn4)cc3n2)cc1` [Compound 148, N-hydroxy-2-(((2-(4-isopropylphenyl)-4-morpholinothieno[3,2-d]pyrimidin-6-yl)methyl)(methyl)amino)pyrimidine-5-carboxamide], the melting point was 155 °C (dec.). The IC50 in series [1] was < 100 nM. On PI3Kα (p110α/p85α), the IC50 is > 10000 nM.
`CN(Cc1cc2nc(-c3ccc(S(C)(=O)=O)cc3)nc(N3CCOCC3)c2s1)c1ncc(C(=O)NO)cn1` [Compound 149, N-hydroxy-2-(methyl((2-(4-(methylsulfonyl)phenyl)-4-morpholinothieno[3,2-d]pyrimidin-6-yl)methyl)amino)pyrimidine-5-carboxamide] gave a melting point of 206 to 208 °C. Moreover, in series [1], the half-inhibitory concentration (IC50) is < 100 nM. The IC50 on PI3Kα (p110α/p85α) was > 10000 nM.
`CNc1ccc(-c2nc(N3CCOCC3)c3sc(CN(C)c4ncc(C(=O)NO)cn4)cc3n2)cc1` [Compound 151, N-hydroxy-2-(methyl((2-(4-(methylamino)phenyl)-4-morpholinothieno[3,2-d]pyrimidin-6-yl)methyl)amino)pyrimidine-5-carboxamide] registered a melting point of 218 to 220 °C. Besides, in series [1], the IC50 was < 100 nM. For the same compound, the IC50 against PI3Kα (p110α/p85α) was > 10000 nM.
The matching figures for `CN(C)c1ccc(-c2nc(N3CCOCC3)c3sc(CN(C)c4ncc(C(=O)NO)cn4)cc3n2)cc1` [Compound 152, 2-(((2-(4-(dimethylamino)phenyl)-4-morpholinothieno[3,2-d]pyrimidin-6-yl)methyl)(methyl)amino)-N-hydroxypyrimidine-5-carboxamide]: 208 to 210 °C, < 100 nM and > 10000 nM.
The compound `CCNc1ccc(-c2nc(N3CCOCC3)c3sc(CN(C)c4ncc(C(=O)NO)cn4)cc3n2)cc1` [Compound 153, 2-(((2-(4-(ethylamino)phenyl)-4-morpholinothieno[3,2-d]pyrimidin-6-yl)methyl)(methyl)amino)-N-hydroxypyrimidine-5-carboxamide] gave a melting point of 185 to 187 °C. The IC50 in series [1] was < 100 nM. Moreover, the IC50 at PI3Kα (p110α/p85α) is > 10000 nM.
In turn, `CCN(CC)c1ccc(-c2nc(N3CCOCC3)c3sc(CN(C)c4ncc(C(=O)NO)cn4)cc3n2)cc1` [Compound 154, 2-(((2-(4-(Diethylamino)phenyl)-4-morpholinothieno[3,2-d]pyrimidin-6-yl)methyl)(methyl)amino)-N-hydroxypyrimidine-5-carboxamide] gave a melting point of 192 to 196 °C. Also, in series [1], the half-maximal inhibitory concentration (IC50) was < 100 nM. Besides, the IC50 against PI3Kα (p110α/p85α) is > 10000 nM.
For `CN(Cc1cc2nc(-c3ccc(N4CCCC4)cc3)nc(N3CCOCC3)c2s1)c1ncc(C(=O)NO)cn1` [Compound 155, N-hydroxy-2-(methyl((4-morpholino-2-(4-(pyrrolidin-1-yl)phenyl)thieno[3,2-d]pyrimidin-6-yl)methyl)amino)pyrimidine-5-carboxamide] the same measures were 187 to 192 °C, < 100 nM and > 10000 nM.
For `CN(Cc1cc2nc(-c3ccc(N)c(N)c3)nc(N3CCOCC3)c2s1)c1ncc(C(=O)NO)cn1` [Compound 156, 2-(((2-(3,4-diaminophenyl)-4-morpholinothieno[3,2-d]pyrimidin-6-yl)methyl)(methyl)amino)-N-hydroxypyrimidine-5-carboxamide] the same measures were 222 to 225 °C, < 100 nM and 100 to 1000 nM.
As for `CN(Cc1cc2nc(-c3cccc4[nH]ncc34)nc(Nc3ccccc3)c2s1)c1ncc(C(=O)NO)cn1` [Compound 164, 2-(((2-(1H-indazol-4-yl)-4-(phenylamino)thieno[3,2-d]pyrimidin-6-yl)methyl)(methyl)amino)-N-hydroxypyrimidine-5-carboxamide], the melting point fell in the range of 232 to 235 °C. The IC50 in series [1] was < 100 nM. Besides, the IC50 against PI3Kα (p110α/p85α) was < 100 nM.

Usually IC50 stands for the concentration that inhibits the measured activity by half. As a reminder, the melting point is the temperature of the solid-liquid transition.
